Results published in US20050202089A1 (SANOFI-SYNTHELABO, priority 1996, published 2005).

Experiment: solubility of mizolastine in water

## 2-[[1-[1-[(4-fluorophenyl)methyl]-1H-benzimidazol-2-yl]piperid-4-yl]methylamino]-pyrimidin-4-ol [mizolastine]
Neutral pH
  solubility in water: 13 µg/mL
pH 3
  solubility: 11000 µg/mL
